Results on ten molecules are retold here after patent publication US20250066386A1, “INHIBITORS OF KRAS” (BIOMEA FUSION, INC., priority 2022, published 2025).

The conditions of data set [1]: from CCn1c(-c2cccnc2[C@H](C)OC)c(CC(C)(C)CO)c2cc(-c3cccc(C[C@H](NC(=O)OC(C)(C)C)C(=O)N4CCC[C@@H](C(=O)O)C4)c3)ccc21, ester bond, 18-membered ring, EDCI/HOBT/DIPEA, DCM, 25.0 °C, 16.0 h, 2 steps.
The test system of data set [2] is human KRAS G12C mutated cell line MIA PaCa-2. The data set can be described thus: KRas G12C in vitro inhibitory activity: cell proliferation, CellTiter-Glo. It counts as cell-based. As to conditions: Homo sapiens.
Description: The present example evaluates the ability of compounds provided herein to inhibit proliferation of KRAS mutant cells.
The inhibitory effect on cell proliferation was investigated in the human KRAS G12C mutated cell line MIA PaCa-2 (Yunis et al., 1977, Int. J. Cancer 19(1):128-135; ATCC catalog no. CRL-1420). Cells were maintained in RPMI-1640 medium (ThermoFisher catalog no. 61870036) supplemented with 10% of Heat Inactivated FBS (ThermoFisher catalog no. A31605) and 1% Pen-Strep (ThermoFisher catalog no. 10378016) and cultured at 37° C. in a humidified incubator with 5% CO2. Cells were grown by adhering to culture flasks, and maintained at 70%-80% confluency.
ATP is present in all metabolically active cells and is considered as a marker for viable cells. The number of metabolically active live cells in culture was determined using the CellTiter-Glo kit (Promega catalog no. G7572), an ATP monitoring system based on the production of luminescence by the reaction of ATP with added UltraGlo® recombinant luciferase (Kawano et al., 2016, PLOS One, 8; 11(7):e0158888), according to the supplier's experimental recommendations. The cell proliferation assay was based on a 96 well plate format.
Test compounds were dissolved at 10 mM in DMSO (Sigma catalog no. D8418; purity >99.9%) and stored at −20° C. Eight concentrations of test compound were assessed in duplicate in an individual test occasion in parallel in the selected cell lines. MRTX-849 and AMG-510 were used as reference compounds and tested in duplicate at eight concentrations. 100% of proliferation is represented by the untreated cells (0.2% DMSO).
On the day of the experiment (TO), cells were detached with TrypLE (ThermoFisher catalog no. 12604054), quantified using the cell viability analyser NucleoCounter (Chemometec NC-200) and resuspended in fresh medium at a cell density of about 5000 cells per 200 μL medium. 200 μL of cell suspension were added to each well of a 96 well plate.
Two hours after seeding cells, compounds were added at desired concentrations using a D300e compound dispenser (Life Sciences Tecan D300) with shaking after each compound addition. Assay plates were incubated at 37° C. in a humidified incubator with 5% CO2.
(§1) To measure 3 day inhibition of cell proliferation on day 3 (T3), assay plates were equilibrated to room temperature for approximately 15 min, and the Promega CellTiterGlo® reagent was added at 40 μL/well. Contents were mixed for 5 min on an orbital shaker to induce cell lysis, and then incubated at room temperature for an additional 10 min in the dark to stabilize the luminescent signal. Luminescence was read using a GloMax GM300 plate reader (Promega) using the luminescence for 96 well plate standard protocol.
as §1, with “measure 7” for “measure 3”, “(T3), 150 μL of growth media was removed from each well of the assay plates and replaced with 150 uL fresh growth media, and fresh compounds added using a D300e compound dispenser (Life Sciences Tecan D300) at desired concentrations with shaking between each compound addition. Assay plates were incubated at 37° C. in a humidified incubator with 5% CO2. On day 7 (T7)” for “(T3),”
Data was expressed as % of inhibition compared to the 0.2% DMSO negative no drug control, and is calculated as follows: % inhibition=100−[(RLU sample)×100/(RLU average controls*)], where * indicates the average for 0.2% DMSO.
Results were analyzed by GraphPad (Prism) and IC50 values were calculated by non-linear regression using four parameter-logistic equation. […]
(In general: ATP-based viability assays read luminescence as a measure of living cells.)

[3] abbreviates: MIA PaCa-2, 72 h, 3 day inhibition of cell proliferation, CellTiter-Glo luminescence, read-out: MIA PaCa-2 Day 3 IC50.
Where [4] appears, read: MIA PaCa-2, 7 day inhibition of cell proliferation, medium and compound renewed on day 3, CellTiter-Glo luminescence, read-out: MIA PaCa-2 Day 7 IC50.

Like-named read-outs stand apart in the source and are kept apart here.

On to `CCn1c(-c2cccnc2[C@H](C)OC)c2c3cc(ccc31)-c1cccc(c1)C[C@H](NC(=O)OC(C)(C)C)C(=O)N1CCC[C@H](C1)C(=O)OCC(C)(C)C2`, for which the ring closure, isolated yield is 62% in data set [1] (9.6 mM) and 56% in data set [1] (9.9 mM).
The IC50 is the concentration needed to halve the response being measured. Consider `CCn1c(-c2cccnc2[C@H](C)OC)c2c3cc(ccc31)-c1csc(n1)C[C@H](NC(=O)[C@H](C(C)C)N(C)C(=O)[C@H]1CCN(CC#CC(=O)N3CCC3)C1)C(=O)N1CCC[C@H](N1)C(=O)OCC(C)(C)C2` (atropisomer, axis not shown) [Compound 116, (3S)-1-(4-(azetidin-1-yl)-4-oxobut-2-yn-1-yl)-N-((2S)-1-(((6^3S,4S,Z)-1^1-ethyl-1^2-(2-((S)-1-methoxyethyl)pyridin-3-yl)-10,10-dimethyl-5,7-dioxo-6^1,6^2,6^3,6^4,6^5,6^6-hexahydro-1^1H-8-oxa-2(4,2)-thiazola-1(5,3)-indola-6(1,3)-pyridazinacycloundecaphane-4-yl)amino)-3-methyl-1-oxobutan-2-yl)-N-methylpyrrolidine-3-carboxamide], for which the IC50 in data set [2] (setting [3]) is > 100 nM; in data set [2] (setting [4]), 1 to 10 nM.
As to `CCn1c(-c2cccnc2[C@H](C)OC)c2c3cc(ccc31)-c1csc(n1)C[C@H](NC(=O)[C@H](C(C)C)N(C)C(=O)[C@H]1CCN(CC#CC(=O)N3CC(F)(F)C3)C1)C(=O)N1CCC[C@H](N1)C(=O)OCC(C)(C)C2` (atropisomer, axis not shown) [Compound 117, (3S)-1-(4-(3,3-difluoroazetidin-1-yl)-4-oxobut-2-yn-1-yl)-N-((2S)-1-(((6^3S,4S,Z)-1^1-ethyl-1^2-(2-((S)-1-methoxyethyl)pyridin-3-yl)-10,10-dimethyl-5,7-dioxo-6^1,6^2,6^3,6^4,6^5,6^6-hexahydro-1^1H-8-oxa-2(4,2)-thiazola-1(5,3)-indola-6(1,3)-pyridazinacycloundecaphane-4-yl)amino)-3-methyl-1-oxobutan-2-yl)-N-methylpyrrolidine-3-carboxamide], the figures for the IC50 in data set [2] (setting [3]) and in data set [2] (setting [4]) were > 100 nM and 1 to 10 nM, respectively.
Consider `CCn1c(-c2cccnc2[C@H](C)OC)c2c3cc(ccc31)-c1csc(n1)C[C@H](NC(=O)[C@H](C(C)C)N(C)C(=O)[C@H]1CCN(CC#CC(=O)N3CC(F)C3)C1)C(=O)N1CCC[C@H](N1)C(=O)OCC(C)(C)C2` (atropisomer, axis not shown) [Compound 118, (3S)—N-((2S)-1-(((6^3S,4S,Z)-1^1-ethyl-1^2-(2-((S)-1-methoxyethyl)pyridin-3-yl)-10,10-dimethyl-5,7-dioxo-6^1,6^2,6^3,6^4,6^5,6^6-hexahydro-1^1H-8-oxa-2(4,2)-thiazola-1(5,3)-indola-6(1,3)-pyridazinacycloundecaphane-4-yl)amino)-3-methyl-1-oxobutan-2-yl)-1-(4-(3-fluoroazetidin-1-yl)-4-oxobut-2-yn-1-yl)-N-methylpyrrolidine-3-carboxamide], for which the IC50 in data set [2] (setting [3]) was > 100 nM; in data set [2] (setting [4]), 1 to 10 nM.
Consider `C=CC(=O)N1CC[C@H](C(=O)N(C)[C@H](C(=O)N[C@H]2Cc3cccc(c3)-c3ccc4c(c3)c(c(-c3cccnc3[C@H](C)OC)n4CC)CC(C)(C)n3cc(nn3)[C@@H]3CCCN(N3)C2=O)C(C)C)C1` [Compound 104, (3S)-1-acryloyl-N-((2S)-1-(((6^3S,8S,Z)-21-ethyl-2^2-(2-((S)-1-methoxyethyl)pyridin-3-yl)-4,4-dimethyl-7-oxo-6^1,6^2,6^3,6^4,6^5,6^6-hexahydro-2^1H,5^1H-2(5,3)-indola-6(3,1)-pyridazina-5(1,4)-triazola-1(1,3)-benzenacyclononaphane-8-yl)amino)-3-methyl-1-oxobutan-2-yl)-N-methylpyrrolidine-3-carboxamide], for which the IC50 in data set [2] (setting [3]) was > 100 nM.
In the case of `CCn1c(-c2cccnc2[C@H](C)OC)c2c3cc(ccc31)-c1csc(n1)C[C@H](NC(=O)[C@H](C(C)C)N(C)C(=O)N1[C@H](C)CN(CC#CC(=O)N(C)C)C[C@H]1C)C(=O)N1CCC[C@H](N1)C(=O)OCC(C)(C)C2` [Compound 105, (2R,6R)-4-(4-(dimethylamino)-4-oxobut-2-yn-1-yl)-N-((2S)-1-(((6^3S,4S,Z)-1^1-ethyl-1^2-(2-((S)-1-methoxyethyl)pyridin-3-yl)-10,10-dimethyl-5,7-dioxo-6^1,6^2,6^3,6^4,6^5,6^6-hexahydro-1^1H-8-oxa-2(4,2)-thiazola-1(5,3)-indola-6(1,3)-pyridazinacycloundecaphane-4-yl)amino)-3-methyl-1-oxobutan-2-yl)-N,2,6-trimethylpiperazine-1-carboxamide], the IC50 in data set [2] (setting [3]) and in data set [2] (setting [4]) was 10 to 100 nM each time.
As for `CCn1c(-c2cccnc2[C@H](C)OC)c2c3cc(ccc31)-c1cccc(c1)C[C@H](NC(=O)[C@H](C(C)C)N(C)C(=O)[C@H]1CCN(C(=O)C#CCN3CCOCC3)C1)C(=O)N1CCC[C@@H](CC(=O)OC(C)(C)C2)C1` [Compound 106, (3S)—N-((2S)-1-(((6^3S,4S)-1^1-ethyl-1^2-(2-((S)-1-methoxyethyl)pyridin-3-yl)-10,10-dimethyl-5,8-dioxo-1^1H-9-oxa-1(5,3)-indola-6(1,3)-piperidina-2(1,3)-benzenacycloundecaphane-4-yl)amino)-3-methyl-1-oxobutan-2-yl)-N-methyl-1-(4-morpholinobut-2-ynoyl)pyrrolidine-3-carboxamide], the IC50 in data set [2] (setting [3]) is > 100 nM.
As to `CCn1c(-c2cccnc2[C@H](C)OC)c2c3cc(ccc31)-c1cccc(c1)C[C@H](NC(=O)[C@H](C(C)C)N(C)C(=O)[C@H]1CCN(C(=O)C#CCN3CCOCC3)C1)C(=O)N1CCC[C@@H](CC(=O)OC(C)(C)C2)C1` [Compound 107], the IC50 in data set [2] (setting [4]) was > 100 nM.
`CCn1c(-c2cccnc2[C@H](C)OC)c2c3cc(ccc31)-c1cccc(c1)C[C@H](NC(=O)[C@H](C(C)C)N(C)C(=O)[C@H]1CCN(C(=O)C#CCN3CCOCC3)C1)C(=O)N1CCC[C@H](CC(=O)OC(C)(C)C2)C1` [Compound 108, (3S)—N-((2S)-1-(((6^3R,4S)-1^1-ethyl-1^2-(2-((S)-1-methoxyethyl)pyridin-3-yl)-10,10-dimethyl-5,8-dioxo-1^1H-9-oxa-1(5,3)-indola-6(1,3)-piperidina-2(1,3)-benzenacycloundecaphane-4-yl)amino)-3-methyl-1-oxobutan-2-yl)-N-methyl-1-(4-morpholinobut-2-ynoyl)pyrrolidine-3-carboxamide]: the IC50 in data set [2] (setting [3]) is > 100 nM.
`CCn1c(-c2cccnc2[C@H](C)OC)c2c3cc(ccc31)-c1csc(n1)C[C@H](NC(=O)[C@H](C(C)C)N(C)C(=O)[C@H]1CCN(C(C)C#CC(=O)N(C)C)C1)C(=O)N1CCC[C@H](N1)C(=O)OCC(C)(C)C2` (stereo partly drawn) [Compound 114, (3S)-1-(5-(dimethylamino)-5-oxopent-3-yn-2-yl)-N-((2S)-1-(((63S,4S,Z)-1^1-ethyl-1^2-(2-((S)-1-methoxyethyl)pyridin-3-yl)-10,10-dimethyl-5,7-dioxo-6^1,6^2,6^3,6^4,6^5,6^6-hexahydro-11H-8-oxa-2(4,2)-thiazola-1(5,3)-indola-6(1,3)-pyridazinacycloundecaphane-4-yl)amino)-3-methyl-1-oxobutan-2-yl)-N-methylpyrrolidine-3-carboxamide]: the IC50 in data set [2] (setting [3]) is < 1 nM.
